Experimental data from publication PMC11096235, “Membrane-bound chemoreception of bitter bile acids and peptides is mediated by the same subset of bitter taste receptors” (Cellular and Molecular Life Sciences: CMLS, 2024).
Peptide text beside a SMILES is read from it.

Columns and labels:
Experiment in all cases: FLIPR calcium mobilization (Fluo-4), agonist activation
Assay type in all cases: cell-based
Conditions in all cases: HEK 293T-Gα16gust44 cells, pH 7.4
Tas2r29 (xtTas2r29) = target: T1, Tas2r29 (xtTas2r29) (Xenopus tropicalis, UniProt Q2AB56)
T1 construct: full length, N-terminal sst3 export tag, C-terminal hsv tag; HEK 293T-Galpha16gust44
T1 sequence (Q2AB56 1-290): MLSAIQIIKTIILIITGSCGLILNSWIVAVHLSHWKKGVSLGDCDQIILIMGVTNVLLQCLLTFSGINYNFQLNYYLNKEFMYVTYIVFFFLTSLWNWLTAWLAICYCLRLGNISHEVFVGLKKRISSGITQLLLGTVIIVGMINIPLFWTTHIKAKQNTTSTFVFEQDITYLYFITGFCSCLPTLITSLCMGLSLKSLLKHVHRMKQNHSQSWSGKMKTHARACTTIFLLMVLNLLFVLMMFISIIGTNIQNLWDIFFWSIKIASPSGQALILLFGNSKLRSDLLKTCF

[1] = target: T2, zebrafish receptor Tas2r4 (Danio rerio, UniProt Q58WW8)
T2 construct: gene tas2r203; full length, N-terminal sst3 export tag, C-terminal hsv tag; HEK 293T-Galpha16gust44
T2 sequence (Q58WW8 1-305): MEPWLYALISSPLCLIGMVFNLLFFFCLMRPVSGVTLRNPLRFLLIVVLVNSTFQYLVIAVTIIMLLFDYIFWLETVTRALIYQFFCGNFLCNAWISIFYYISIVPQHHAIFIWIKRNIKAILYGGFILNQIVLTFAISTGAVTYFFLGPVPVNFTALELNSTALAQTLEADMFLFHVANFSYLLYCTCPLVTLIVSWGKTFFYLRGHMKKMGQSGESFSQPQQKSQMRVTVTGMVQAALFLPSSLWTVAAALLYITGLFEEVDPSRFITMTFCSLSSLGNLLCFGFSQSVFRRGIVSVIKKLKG

[2] = target: T3, chicken Tas2r2 (ggTas2r2) (Gallus gallus, UniProt A0A1D5PXM6)
T3 construct: gene LOC101747503; full length, N-terminal sst3 export tag, C-terminal hsv tag; HEK 293T-Galpha16gust44
T3 sequence (A0A1D5PXM6 1-311): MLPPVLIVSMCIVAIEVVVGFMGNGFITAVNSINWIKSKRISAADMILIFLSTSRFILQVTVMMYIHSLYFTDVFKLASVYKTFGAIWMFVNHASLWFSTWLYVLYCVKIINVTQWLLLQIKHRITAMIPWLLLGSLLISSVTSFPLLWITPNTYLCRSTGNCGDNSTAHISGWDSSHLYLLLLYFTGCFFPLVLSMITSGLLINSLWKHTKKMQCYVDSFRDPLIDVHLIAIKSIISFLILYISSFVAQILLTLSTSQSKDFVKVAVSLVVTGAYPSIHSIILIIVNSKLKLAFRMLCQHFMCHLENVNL

Structure (SMILES): N[C@@H](Cc1c[nH]c2ccccc12)C(=O)N[C@@H](Cc1c[nH]c2ccccc12)C(=O)N[C@@H](Cc1c[nH]c2ccccc12)C(=O)O [L-Trp-Trp-Trp] (H-Trp-Trp-Trp-OH)
- dF/F (Tas2r29 (xtTas2r29)): Tas2r29 exhibited only weak, yet significant, responses to L-Trp-Trp-Trp as well as to CA and GCA

Structure (SMILES): N[C@@H](Cc1c[nH]c2ccccc12)C(=O)O [L-Trp]
- dF/F [1]: Subsequent testing with L- and D-Trp revealed responsiveness to these amino acids

Structure (SMILES): C[C@H](CCC(=O)O)[C@H]1CC[C@H]2[C@@H]3[C@H](O)C[C@@H]4C[C@H](O)CC[C@]4(C)[C@H]3C[C@H](O)[C@]12C [cholic acid]
- dF/F [2]: chicken Tas2r2 were only significant for the highest concentrations of the two bile acids
